Measured values as given in US20140350273A1, “PEDIATRIC USES OF CABAZITAXEL” (AVENTIS PHARMA S.A., priority 2012, published 2014).
Read-outs that look alike come from different tables or passages of the source.

Tested on: human osteosarcoma DM77
Type: in vivo
Settings: for Tumor Volume Data (Day 21) Median / ΔT/ΔC % / ΔT/ΔC: day 21; for MTTE / T-C: volume endpoint 1400 mm^3
Method: In the reported examples supporting this invention, vials of the clinical formulation of cabazitaxel and docetaxel were used. […] The resultant solution contains 10 mg/mL of cabazitaxel. Stock solution of cabazitaxel was then diluted in 0.9% sodium chloride.
This efficacy may be quantified, for example, as changes in tumor volume for each treated (T) and control (C) group, which are calculated for each animal and each day by subtracting the tumor volume on the day of first treatment (staging day) from the tumor volume on the specified observation day. This allows calculating the tumor growth inhibition: ΔT/ΔC=(median delta T/median delta C)×100. Individual tumor volume changes from baseline are thereafter analyzed by a non-parametric two-way ANOVA-TYPE (with factors: group and repeated days) followed by a post-hoc contrasts analysis, with Bonferroni-Holm adjustment for multiplicity, comparing all treated groups to the control group. […] A probability less than 5% (p<0.05) was considered as significant.
Based on the National Cancer Institute (NCl) standards, a ΔT/ΔC≦40% is the minimal level required to declare activity.
This efficacy may also be quantified by the number of tumor regressions observed after therapy. Individual mice reporting a tumor volume ≦50% of the Day 0 measurement for two consecutive measurements over a seven day period were considered partial responders (PR). Individual mice lacking palpable tumors (<4×4 mm^2 for two consecutive measurements over a seven day period) were classified as complete responders (CR); a CR that persisted until study completion was considered a tumor-free survivor (TFS).
Efficacy could also be determined at study completion, using tumor growth delay (T-C) in days, which is calculated using the median time to endpoint (MTTE) value for each treatment (T) group versus control (C). A Log Rank multiple comparison test with Bonferroni-Holm adjustment for multiplicity was applied on individual TTE to compare the treated groups to the control group.
The efficacy of cabazitaxel in comparison with docetaxel on pediatric patient-derived tumor xenografts was determined experimentally in the following manner:
The animals subjected to the experiment are subcutaneously grafted unilaterally with approximately 30 mg of a tumor fragment from low passage pediatric patient-derived tumor xenografts. The animals are implanted with a human patient-derived pediatric tumor xenografted in immuno-compromised mice (Harlan; nu/nu). Several days post tumor implantation, mice are randomized according to their tumor burden to the different groups of treatments and controls. The agents are dosed intravenously at 5.8, 9.3, 15 or 24.2 mg/kg every 4 days for a total of 3 doses (q4d×3) to mice bearing a tumor burden at start of therapy (day 0) ranged from 125 to 250 mm^3.
Beginning Day 0, animals were observed daily and weighed twice weekly using a digital scale; data including individual and mean gram weights (Mean We±SD), mean percent weight change versus Day 0 were recorded for each group. Animal deaths were recorded daily and designated as drug-related (D), technical (T), tumor related (B), or unknown (U) based on weight loss and gross observation; single agent or combination groups reporting a mean >20% for a period of 7 days and/or >10% mortality were considered above the maximum tolerated dose (MTD) for that treatment on the evaluated regimen.
The selected tumor model, DM77, was a low passage patient-derived tumor xenograft derived from an osteosarcoma taken from the lung of a patient. […]

## CO[C@H]1C(=O)[C@]2(C)[C@@H](OC)C[C@H]3OC[C@@]3(OC(C)=O)[C@H]2[C@H](OC(=O)c2ccccc2)[C@]2(O)C[C@H](OC(=O)[C@H](O)[C@@H](NC(=O)OC(C)(C)C)c3ccccc3)C(C)=C1C2(C)C [Cabazitaxel, 4α-acetoxy-2α-benzoyloxy-5β,20-epoxy-1β-hydroxy-7β,10β-dimethoxy-9-oxo-11-taxen-13α-yl (2R,3S)-3-tert-butoxycarbonyl-amino-2-hydroxy-3-phenylpropionate]
5.8 mg/kg i.v./q4dx3
  #CR: 0/0/0
  #PR: 0/0/0
  #TFS: 0/0/0
  Drug Deaths Total: 0
  Weight Change at Nadir %: −5%
  Weight Change at Nadir Day: 11 days
  Tumor Volume Data (Day 21) Median: 333 mm^3
  ΔT/ΔC %: 14.1%
  MTTE: 49 days
  T-C: 24 days
5.8 mg/kg q4d×3 IV
  ΔT/ΔC: 14.1%
5.8 mg/kg, DAY 4
  tumor volume changes from baseline, Median +/− nMAD: 47 +/− 47
5.8 mg/kg, DAY 7
  tumor volume changes from baseline, Median +/− nMAD: 121 +/− 80
5.8 mg/kg, DAY 11
  tumor volume changes from baseline, Median +/− nMAD: 162 +/− 89
5.8 mg/kg, DAY 14
  tumor volume changes from baseline, Median +/− nMAD: 162 +/− 97
5.8 mg/kg, DAY 18
  tumor volume changes from baseline, Median +/− nMAD: 195 +/− 122
5.8 mg/kg, DAY 21
  tumor volume changes from baseline, Median +/− nMAD: 129 +/− 129
5.8 mg/kg, DAY 25
  tumor volume changes from baseline, Median +/− nMAD: 96 +/− 115
5.8 mg/kg, DAY 28
  tumor volume changes from baseline, Median +/− nMAD: 96 +/− 115
5.8 mg/kg, DAY 32
  tumor volume changes from baseline, Median +/− nMAD: 96 +/− 109
5.8 mg/kg, DAY 35
  tumor volume changes from baseline, Median +/− nMAD: 169 +/− 182
5.8 mg/kg, DAY 39
  tumor volume changes from baseline, Median +/− nMAD: 239 +/− 172.5
5.8 mg/kg, DAY 42
  tumor volume changes from baseline, Median +/− nMAD: 240 +/− 162
5.8 mg/kg, DAY 46
  tumor volume changes from baseline, Median +/− nMAD: 364.5 +/− 226
5.8 mg/kg, DAY 49
  tumor volume changes from baseline, Median +/− nMAD: 402 +/− 254
5.8 mg/kg, DAY 53
  tumor volume changes from baseline, Median +/− nMAD: 706 +/− 516
5.8 mg/kg, DAY 56
  tumor volume changes from baseline, Median +/− nMAD: 878 +/− 602.5
9.3 mg/kg i.v./q4dx3
  #CR: 0
  #PR: 2
  #TFS: 0
  Drug Deaths Total: 0
  Weight Change at Nadir %: −8%
  Weight Change at Nadir Day: 11 days
  Tumor Volume Data (Day 21) Median: 131 mm^3
  ΔT/ΔC %: 0%
  MTTE: >60 days
  T-C: >35 days
9.3 mg/kg q4d×3 IV
  numbers of PR: 2/9
  ΔT/ΔC: 0%
9.3 mg/kg, DAY 4
  tumor volume changes from baseline, Median +/− nMAD: 54 +/− 54
9.3 mg/kg, DAY 7
  tumor volume changes from baseline, Median +/− nMAD: 73 +/− 73
9.3 mg/kg, DAY 11
  tumor volume changes from baseline, Median +/− nMAD: 19 +/− 35
9.3 mg/kg, DAY 14
  tumor volume changes from baseline, Median +/− nMAD: 19 +/− 35
9.3 mg/kg, DAY 18
  tumor volume changes from baseline, Median +/− nMAD: 0 +/− 33
9.3 mg/kg, DAY 21
  tumor volume changes from baseline, Median +/− nMAD: 0 +/− 34
9.3 mg/kg, DAY 25
  tumor volume changes from baseline, Median +/− nMAD: −19 +/− 26
9.3 mg/kg, DAY 28
  tumor volume changes from baseline, Median +/− nMAD: −45 +/− 26
9.3 mg/kg, DAY 32
  tumor volume changes from baseline, Median +/− nMAD: −45 +/− 26
9.3 mg/kg, DAY 35
  tumor volume changes from baseline, Median +/− nMAD: −66 +/− 7
9.3 mg/kg, DAY 39
  tumor volume changes from baseline, Median +/− nMAD: −66 +/− 7
9.3 mg/kg, DAY 42
  tumor volume changes from baseline, Median +/− nMAD: −66 +/− 7
9.3 mg/kg, DAY 46
  tumor volume changes from baseline, Median +/− nMAD: −66 +/− 7
9.3 mg/kg, DAY 49
  tumor volume changes from baseline, Median +/− nMAD: −66 +/− 7
9.3 mg/kg, DAY 53
  tumor volume changes from baseline, Median +/− nMAD: −47 +/− 25
9.3 mg/kg, DAY 56
  tumor volume changes from baseline, Median +/− nMAD: −47 +/− 26
15 mg/kg i.v./q4dx3
  #CR: 0
  #PR: 6
  #TFS: 0
  Drug Deaths Total: 0
  Weight Change at Nadir %: −9%
  Weight Change at Nadir Day: 11 days
  Tumor Volume Data (Day 21) Median: 78 mm^3
  ΔT/ΔC %: −9.3%
  MTTE: >60 days
  T-C: >35 days
15 mg/kg, DAY 4
  tumor volume changes from baseline, Median +/− nMAD: 0 +/− 0 (n = 9)
15 mg/kg, DAY 7
  tumor volume changes from baseline, Median +/− nMAD: 0 +/− 25
15 mg/kg, DAY 11
  tumor volume changes from baseline, Median +/− nMAD: −53 +/− 19
15 mg/kg, DAY 14
  tumor volume changes from baseline, Median +/− nMAD: −53 +/− 27
15 mg/kg, DAY 18
  tumor volume changes from baseline, Median +/− nMAD: −73 +/− 20
15 mg/kg, DAY 21
  tumor volume changes from baseline, Median +/− nMAD: −85 +/− 13
15 mg/kg, DAY 25
  tumor volume changes from baseline, Median +/− nMAD: −85 +/− 13
15 mg/kg, DAY 28
  tumor volume changes from baseline, Median +/− nMAD: −85 +/− 13
15 mg/kg, DAY 32
  tumor volume changes from baseline, Median +/− nMAD: −85 +/− 19
15 mg/kg, DAY 35
  tumor volume changes from baseline, Median +/− nMAD: −85 +/− 19
15 mg/kg, DAY 39
  tumor volume changes from baseline, Median +/− nMAD: −85 +/− 38
15 mg/kg, DAY 42
  tumor volume changes from baseline, Median +/− nMAD: −85 +/− 38
15 mg/kg, DAY 46
  tumor volume changes from baseline, Median +/− nMAD: −85 +/− 38
15 mg/kg, DAY 49
  tumor volume changes from baseline, Median +/− nMAD: −85 +/− 38
15 mg/kg, DAY 53
  tumor volume changes from baseline, Median +/− nMAD: −85 +/− 38
15 mg/kg, DAY 56
  tumor volume changes from baseline, Median +/− nMAD: −85 +/− 38
24.2 mg/kg i.v./q4dx3
  #CR: 1
  #PR: 5
  #TFS: 1
  Drug Deaths Total: 0
  Weight Change at Nadir %: −15%
  Weight Change at Nadir Day: 14 days
  Tumor Volume Data (Day 21) Median: 101.5 mm^3
  ΔT/ΔC %: −6.9%
  MTTE: >60 days
  T-C: >35 days
24.2 mg/kg, DAY 4
  tumor volume changes from baseline, Median +/− nMAD: 22 +/− 22
24.2 mg/kg, DAY 7
  tumor volume changes from baseline, Median +/− nMAD: 0 +/− 9.5
24.2 mg/kg, DAY 11
  tumor volume changes from baseline, Median +/− nMAD: −26.5
24.2 mg/kg, DAY 14
  tumor volume changes from baseline, Median +/− nMAD: −29.5
24.2 mg/kg, DAY 18
  tumor volume changes from baseline, Median +/− nMAD: −61.5 +/− 27
24.2 mg/kg, DAY 21
  tumor volume changes from baseline, Median +/− nMAD: −63 +/− 25.5
24.2 mg/kg, DAY 25
  tumor volume changes from baseline, Median +/− nMAD: −69.5
24.2 mg/kg, DAY 28
  tumor volume changes from baseline, Median +/− nMAD: −60 +/− 28.5
24.2 mg/kg, DAY 32
  tumor volume changes from baseline, Median +/− nMAD: −60 +/− 28.5
24.2 mg/kg, DAY 35
  tumor volume changes from baseline, Median +/− nMAD: −60 +/− 35
24.2 mg/kg, DAY 39
  tumor volume changes from baseline, Median +/− nMAD: −60 +/− 35
24.2 mg/kg, DAY 42
  tumor volume changes from baseline, Median +/− nMAD: −71 +/− 46.5
24.2 mg/kg, DAY 46
  tumor volume changes from baseline, Median +/− nMAD: −71 +/− 46.5
24.2 mg/kg, DAY 49
  tumor volume changes from baseline, Median +/− nMAD: −71 +/− 43
24.2 mg/kg, DAY 53
  tumor volume changes from baseline, Median +/− nMAD: −64.5 +/− 45.5
24.2 mg/kg, DAY 56
  tumor volume changes from baseline, Median +/− nMAD: −64.5 +/− 46.5
Conclusion of example 4, dose equivalent basis
  antitumor activity compared with docetaxel: more efficacious than docetaxel at both mid doses
